Experimental data from patent US4713445A, “Renin inhibitors and treatments using them” (priority 1983, dated 1987).
Like-named read-outs stand apart in the source and are kept apart here. *1 amine or outer side, *2 acyl side, *3 side chain or, on linkers, in order; H or OH if unused. Where a SMILES comes first, the peptide text is derived from it. [ ]: non-standard residue; d: D form. The star is where a group is joined. X2 = CC(C)C[C@@H](CN[C@H](C(=O)N[C@@H](Cc1c[nH]cn1)C(=O)NCCCN)C(C)C)N*; X4 = CC(C)C[C@H](N[*:1])[C@@H](O)CCC(=O)[*:2]; Boc = CC(C)(C)OC(=O)*

Biological target: T1, human renin (Homo sapiens, UniProt P00797)
T1 construct: angiotensin-I released from human renin substrate by human resin in human plasma; from tissue; host or cells: human plasma (containing EDTA)
T1 sequence (P00797 67-406): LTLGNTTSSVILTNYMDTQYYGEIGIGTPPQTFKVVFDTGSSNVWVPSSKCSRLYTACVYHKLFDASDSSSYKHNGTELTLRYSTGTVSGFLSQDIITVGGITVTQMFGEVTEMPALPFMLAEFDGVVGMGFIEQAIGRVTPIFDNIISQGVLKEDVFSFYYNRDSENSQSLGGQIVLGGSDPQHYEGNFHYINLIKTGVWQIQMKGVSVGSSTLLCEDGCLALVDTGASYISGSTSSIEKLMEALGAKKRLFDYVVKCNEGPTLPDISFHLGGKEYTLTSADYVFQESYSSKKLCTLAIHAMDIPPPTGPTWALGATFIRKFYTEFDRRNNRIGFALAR
Assay: human renin-renin substrate reaction in vitro; radioimmunoassay of angiotensin-I released in human plasma
Type: biochemical
Excerpt: Preliminary activity test results in the human […] substrate reaction in vitro are given, with comparative figures for the tetrapeptide analogue (III). […] The test results given herein are based on the methods described by J. A. Miller et al in Clinica Chimica Acta (1980) 101 5-15 and K. Poulsen and J. Jorgensen in J. Clin. Endocrinol. Metab. (1974) 39 816, and is based on the measurement, by radioimmunoassay, of angiotensin-I released from human renin substrate by human resin in human plasma. The inhibitor is dissolved in 0.01N HCl (10 μl) and added to hmman plasma (75 μl) containing EDTA, and angiotensin-I antibody (15 μl) in 3M-Tris/HCl buffer (pH 6.9). After incubation at 37° C. for 0-120 minutes, the enzymic reaction is quenched by the addition of ice-cold 0.25M Tris/HCl buffer (pH 7.4) containing 0.01% of bovine serum albumin. 125I-labelled angiotensin-I is added, followed by equilibration at 4° C. for 48 hours. Free and bound ligand are separated by the addition of dextrancoated charcoal, and the amount of bound radio-ligand determined in a gamma counter.

[1] = Table 2, read-out: IC50 μM v/s human renin
[2] = Table 5, human renin-renin substrate reaction in vitro, read-out: IC50

Compound | IC50 [2] | also measured
CC(C)C[C@@H](CN[C@H](C(=O)N[C@@H](Cc1c[nH]cn1)C(=O)NCCCN)C(C)C)NC(=O)[C@H](Cc1c[nH]cn1)NC(=O)[C@H](Cc1ccccc1)NC(=O)[C@@H]1CCCN1C(=O)[C@H](Cc1c[nH]cn1)NC(=O)[C@@H]1CCCN1 [XVII] (H-PHPFH-X2) |  | IC50 (Table I, human renin in human plasma, read-out: IC50, μM human): 4.5 µM
CC[C@H](C)[C@H](NC(=O)CC[C@H](O)[C@H](CC(C)C)NC(=O)[C@H](Cc1c[nH]cn1)NC(=O)[C@H](Cc1ccccc1)NC(=O)OC(C)(C)C)C(=O)N[C@@H](Cc1c[nH]cn1)C(=O)O [Example XLVIII] (Boc-FH[X4]IH-OH) |  | IC50 [1]: 0.3 µM
CC[C@H](C)[C@H](NC(=O)[C@@H](NC[C@H](CC(C)C)NC(=O)[C@H](Cc1c[nH]cn1)NC(=O)[C@H](Cc1ccccc1)NC(=O)[C@@H]1CCCN1C(=O)[C@@H](N)Cc1c[nH]cn1)C(C)C)C(=O)N[C@@H](Cc1ccc(O)cc1)C(=O)O [Example X] | 0.2 µM | 
CC[C@H](C)[C@H](NC(=O)[C@@H](C[C@H](O)[C@H](CC(C)C)NC(=O)[C@H](Cc1c[nH]cn1)NC(=O)[C@H](Cc1ccccc1)NC(=O)OC(C)(C)C)C(C)C)C(=O)OC [Example L] |  | IC50 [1]: 0.005 µM
CC(C)C[C@@H](CN[C@H](C(=O)N[C@H](C(=O)N[C@@H](Cc1ccc(O)cc1)C(=O)O)C(C)C)C(C)C)NC(=O)[C@H](Cc1c[nH]cn1)NC(=O)[C@H](Cc1ccccc1)NC(=O)[C@@H]1CCCN1C(=O)[C@@H](N)Cc1c[nH]cn1 [Example XII] | 1.5 µM | 
CC(C)[C@H](NC(=O)[C@H](Cc1ccccc1)NC[C@H](Cc1ccccc1)NC(=O)[C@H](Cc1c[nH]cn1)NC(=O)[C@H](Cc1ccccc1)NC(=O)[C@@H]1CCCN1C(=O)[C@H](Cc1c[nH]cn1)NC(=O)[C@@H]1CCCN1)C(=O)N[C@@H](Cc1ccc(O)cc1)C(=O)N[C@@H](CCCCN)C(=O)O [Example XI] | 0.05 µM | 
CC(C)C[C@@H](CN[C@@H](Cc1ccccc1)C(=O)N[C@H](C(=O)N[C@@H](Cc1ccc(O)cc1)C(=O)O)C(C)C)NC(=O)[C@H](Cc1c[nH]cn1)NC(=O)[C@H](Cc1ccccc1)NC(=O)[C@@H]1CCCN1C(=O)[C@@H](N)Cc1c[nH]cn1 [Example IX] | 2.5 µM | 
